Here are results for 16 compounds from US10975078B2, “Fused indazole pyridone compounds as antivirals” (priority 2017, dated 2021).

SMILES strings stand for the structures. pEC50: −log10 of the molar value. Like-named read-outs stand apart in the source and are kept apart here.

The assay deals with HBsAg secretion, HepG2-Clone42 cells (Tet-inducible HBV-expressing, HBV ayw strain). Put plainly: HBsAg assay (HBsAg ELISA, secreted HBV sAg from HepG2-Clone42 cells). The format is cell-based. Particulars: for EC50: Hepatitis B virus, read-out: HBsAg (nM), EC50 = concentration at which HBsAg secretion was reduced 50% compared to DMSO control; for pEC50: read-out: HBsAg, EC50 = concentration at which HBsAg secretion was reduced 50% compared to DMSO control. In a few lines: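 HepG2-Clone42 cells (Tet-inducible, integrated 1.3-mer HBV ayw) treated 24 h post-seeding with five-fold serial compound dilutions, 0.5% DMSO final. Secreted HBsAg measured by ELISA (A450); EC50 for 50% reduction vs DMSO control after background subtraction, four-parameter logistic fit.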

For `CC(C)(C)C1Cn2nc3c(OCCOC(F)(F)F)cccc3c2-c2cc(=O)c(C(=O)O)cn21` (racemic) [Example 2.9, 6-(tert-butyl)-2-oxo-10-(2-(trifluoromethoxy)ethoxy)-6,7-dihydro-2H-pyrido[2′,1′:3,4]pyrazino[1,2-b]indazole-3-carboxylic Acid], the EC50 is < 1 nM.
With `CC(C)OCCOc1cccc2c3n(nc12)CC(C(C)(C)C)n1cc(C(=O)O)c(=O)cc1-3` (racemic) [Example 2.15, 6-(tert-butyl)-10-(2-isopropoxyethoxy)-2-oxo-6,7-dihydro-2H-pyrido[2′,1′:3,4]pyrazino[1,2-b]indazole-3-carboxylic Acid], the EC50 was < 1 nM.
For the compound `CC(C)(C)C1Cn2nc3ccccc3c2-c2cc(=O)c(C(=O)O)cn21` (single isomer, unassigned) [Example 1.5-II, 6-(tert-butyl)-2-oxo-6,7-dihydro-2H-pyrido[2′,1′:3,4]pyrazino[1,2-b]indazole-3-carboxylic acid], the pEC50 is < 7.00.
Same read-out and setting: with `CC(C)Oc1cccc2c3n(nc12)CC(C(C)(C)C)n1cc(C(=O)O)c(=O)cc1-3` (single isomer, unassigned) [Example 2.47-II, 6-(tert-butyl)-10-isopropoxy-2-oxo-6,7-dihydro-2H-pyrido[2′,1′:3,4]pyrazino[1,2-b]indazole-3-carboxylic Acid] the figure was > 9.00.
Consider `CCOc1cccc2c3n(nc12)CC(C(C)(C)C)n1cc(C(=O)O)c(=O)cc1-3` (racemic) [Example 2.42, 6-(tert-butyl)-10-ethoxy-2-oxo-6,7-dihydro-2H-pyrido[2′,1′:3,4]pyrazino[1,2-b]indazole-3-carboxylic Acid], for which the EC50 is < 1 nM.
Still for that read-out and setting: with `CC(C)(C)C1Cn2nc3c(OCC4(C#N)CC4)cccc3c2-c2cc(=O)c(C(=O)O)cn21` (racemic) [Example 2.46, 6-(tert-butyl)-10-((1-cyanocyclopropyl)methoxy)-2-oxo-6,7-dihydro-2H-pyrido[2′,1′:3,4]pyrazino[1,2-b]indazole-3-carboxylic Acid] the figure was 1 to 100 nM; with `CC(C)(C)C1Cn2nc3c(OC[C@H]4CCC(=O)N4)cccc3c2-c2cc(=O)c(C(=O)O)cn21` (single isomer, unassigned) [Example 2.34-I], > 100 nM; with `CC(C)(C)C1Cn2nc3c(OC4CCC4)cccc3c2-c2cc(=O)c(C(=O)O)cn21` (racemic) [Example 2.29, 6-(tert-butyl)-10-cyclobutoxy-2-oxo-6,7-dihydro-2H-pyrido[2′,1′:3,4]pyrazino[1,2-b]indazole-3-carboxylic Acid], < 1 nM.
As to `CC(C)(C)C1Cn2nc3c(OCCF)cccc3c2-c2cc(=O)c(C(=O)O)cn21` (racemic) [Example 2.41, 6-(tert-butyl)-10-(2-fluoroethoxy)-2-oxo-6,7-dihydro-2H-pyrido[2′,1′:3,4]pyrazino[1,2-b]indazole-3-carboxylic Acid], the EC50 was < 1 nM.
The same measure, in the same setting: with `CC(C)(C)C1Cn2nc3c(OC(F)F)cccc3c2-c2cc(=O)c(C(=O)O)cn21` (stereo not shown) [Example 2.5, 6-(tert-butyl)-10-(difluoromethoxy)-2-oxo-6,7-dihydro-2H-pyrido[2′,1′:3,4]pyrazino[1,2-b]indazole-3-carboxylic Acid] the figure was 1 to 100 nM.
Regarding `COCCCOc1cccc2c3n(nc12)CC(C(C)(C)COC)n1cc(C(=O)O)c(=O)cc1-3` (single isomer, unassigned) [Example 7.1-I, 6-(1-methoxy-2-methylpropan-2-yl)-10-(3-methoxypropoxy)-2-oxo-6,7-dihydro-2H-pyrido[2′,1′:3,4]pyrazino[1,2-b]indazole-3-carboxylic Acid], the pEC50 is < 7.00.
Consider `COc1ccc2c3n(nc2c1)CC(C(C)(C)C)n1cc(C(=O)O)c(=O)cc1-3` (single isomer, unassigned) [Example 1.2-II, 6-(tert-butyl)-11-methoxy-2-oxo-6,7-dihydro-2H-pyrido[2′,1′:3,4]pyrazino[1,2-b]indazole-3-carboxylic acid], for which the pEC50 was 7.00 to 9.00.
For the compound `COCC(C)Oc1cccc2c3n(nc12)CC(C(C)(C)C)n1cc(C(=O)O)c(=O)cc1-3` (single isomer, unassigned) [Example 2.35-I, 6-(tert-butyl)-10-((1-methoxypropan-2-yl)oxy)-2-oxo-6,7-dihydro-2H-pyrido[2′,1′:3,4]pyrazino[1,2-b]indazole-3-carboxylic Acid], the EC50 was 1 to 100 nM.
On to `CC1(COc2cccc3c4n(nc23)CC(C(C)(C)C)n2cc(C(=O)O)c(=O)cc2-4)COC1` (racemic) [Example 2.45, 6-(tert-butyl)-10-((3-methyloxetan-3-yl)methoxy)-2-oxo-6,7-dihydro-2H-pyrido[2′,1′:3,4]pyrazino[1,2-b]indazole-3-carboxylic Acid], for which the EC50 lay within 1 to 100 nM.
`COCCOc1cccc2c3n(nc12)CC(C(C)(C)C)n1cc(C(=O)O)c(=O)cc1-3` (single isomer, unassigned) [Example 2.2-II, 6-(tert-butyl)-10-(2-methoxyethoxy)-2-oxo-6,7-dihydro-2H-pyrido[2′,1′:3,4]pyrazino[1,2-b]indazole-3-carboxylic Acid]: the pEC50 was > 9.00.
On to `CC(C)(C)C1Cn2nc3c(OCCCS(C)(=O)=O)cccc3c2-c2cc(=O)c(C(=O)O)cn21` (racemic) [Example 2.30, 6-(tert-butyl)-10-(3-(methylsulfonyl)propoxy)-2-oxo-6,7-dihydro-2H-pyrido[2′,1′:3,4]pyrazino[1,2-b]indazole-3-carboxylic Acid], for which the EC50 was 1 to 100 nM.
